Like-named read-outs stand apart in the source and are kept apart here.
Experiments:
[1] = system: Key Broadleaf Weed and Crop Species; assay: Post-Emergent Test II (Table 5); format: in vivo; conditions: post-emergence, 336 h; for pest or weed control at 70 g/ha: application rate 70 (kg ai/ha; footnote: g ai/ha); for pest or weed control at 140 g/ha: application rate 140 (kg ai/ha; footnote: g ai/ha)
Procedure, shortened: (§1)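 Plants grown in a greenhouse (~15 h photoperiod, 23-29° C day) to first or second true leaf stage were sprayed post-emergence at 187 L/ha with compound in acetone/DMSO-based aqueous spray containing crop oil concentrate and surfactant, applied at a high rate plus ½× to 1/16× serial rates. Injury was scored visually 14 days later, 0-100% versus untreated plants.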

[2] = system: Key Grass and Sedge Weeds as well as Grass Crops; assay: Post-Emergent Test II (Table 6); format: in vivo; conditions: post-emergence, 336 h, 14 days after application; for pest or weed control at 70 g/ha: 70 g ai/ha; for pest or weed control at 140 g/ha: 140 g ai/ha
Procedure, shortened: as §1

[3] = Abutilon theophrasti, ABUTH: velvetleaf (Abutilon theophrasti), read-out: Visual Growth Reduction (%) 14 Days After Application ABUTH
[4] = Amaranthus retroflexus, AMARE: redroot pigweed (Amaranthus retroflexus), read-out: Visual Growth Reduction (%) 14 Days After Application AMARE
[5] = Brassica napus, BRSSS: oilseed rape, canola (Brassica napus), read-out: Visual Growth Reduction (%) 14 Days After Application BRSSS
[6] = Chenopodium album, CHEAL: lambsquarters (Chenopodium album), read-out: Visual Growth Reduction (%) 14 Days After Application CHEAL
[7] = Euphorbia heterophylla, EPHHL: wild poinsettia (Euphorbia heterophylla), read-out: Visual Growth Reduction (%) 14 Days After Application EPHHL
[8] = Helianthus annuus, HELAN: sunflower (Helianthus annuus), read-out: Visual Growth Reduction (%) 14 Days After Application HELAN
[9] = Viola tricolor, VIOTR: wild pansy (Viola tricolor), read-out: Visual Growth Reduction (%) 14 Days After Application VIOTR
[10] = CYPSS, read-out: Visual Growth Reduction (%) 14 Days After Application CYPSS
[11] = DIGSA: crabgrass (Digitaria sanguinalis), read-out: Visual Growth Reduction (%) 14 Days After Application DIGSA
[12] = ECHSS, read-out: Visual Growth Reduction (%) 14 Days After Application ECHSS
[13] = ORYSS (crop), read-out: Visual Growth Reduction (%) 14 Days After Application ORYSS
[14] = SETFA: giant foxtail (Setaria faberi), read-out: Visual Growth Reduction (%) 14 Days After Application SETFA
[15] = SORVU: grain sorghum (Sorghum vulgare), read-out: Visual Growth Reduction (%) 14 Days After Application SORVU
[16] = TRZSS (crop), read-out: Visual Growth Reduction (%) 14 Days After Application TRZSS
[17] = ZEAMX: maize, corn (Zea mays), read-out: Visual Growth Reduction (%) 14 Days After Application ZEAMX

`COC(=O)c1nc(-c2ccc(C(F)(F)F)nc2)c(Cl)c(N)c1Cl` [Compound 83] gave a pest or weed control at 70 g/ha [1, 3] of 60 to 74%, a pest or weed control at 140 g/ha [1, 3] of 60 to 74% and a pest or weed control at 70 g/ha [1, 4] of 0 to 29%. For the same molecule, the pest or weed control at 140 g/ha [1, 4] was 0 to 29%, the pest or weed control at 70 g/ha [1, 5] was 45 to 59% and the pest or weed control at 140 g/ha [1, 5] was 45 to 59%. The pest or weed control at 70 g/ha [1, 6] was 60 to 74%, the pest or weed control at 140 g/ha [1, 6] was 75 to 84% and the pest or weed control at 70 g/ha [1, 7] was 0 to 29%. The pest or weed control at 140 g/ha [1, 7] was 30 to 44%, the pest or weed control at 70 g/ha [1, 8] was 85 to 94% and the pest or weed control at 140 g/ha [1, 8] was 85 to 94%. It also gave a pest or weed control at 70 g/ha [1, 9] of 0 to 29%, a pest or weed control at 140 g/ha [1, 9] of 0 to 29% and a pest or weed control at 70 g/ha [2, 10] of 30 to 44%. The pest or weed control at 140 g/ha [2, 10] was 45 to 59%, the pest or weed control at 70 g/ha [2, 11] was 60 to 74% and the pest or weed control at 140 g/ha [2, 11] was 75 to 84%. The pest or weed control at 70 g/ha [2, 12] was 60 to 74%, the pest or weed control at 140 g/ha [2, 12] was 75 to 84% and the pest or weed control at 70 g/ha [2, 13] was 0 to 29%. The pest or weed control at 140 g/ha [2, 13] was 0 to 29%, the pest or weed control at 70 g/ha [2, 14] was 75 to 84% and the pest or weed control at 140 g/ha [2, 14] was 75 to 84%. For the same molecule, the pest or weed control at 70 g/ha [2, 15] was 75 to 84%, the pest or weed control at 140 g/ha [2, 15] was 75 to 84% and the pest or weed control at 70 g/ha [2, 16] was 45 to 59%. For the same molecule, the pest or weed control at 140 g/ha [2, 16] was 60 to 74%, the pest or weed control at 70 g/ha [2, 17] was 75 to 84% and the pest or weed control at 140 g/ha [2, 17] was 75 to 84%. For the same molecule, the melting point was 148 to 150 °C.
`COC(=O)c1nc(-c2ccc(C3CC3)nc2)c(F)c(N)c1Cl` [Compound 49] gave a pest or weed control at 70 g/ha [1, 3] of 95 to 100%, a pest or weed control at 140 g/ha [1, 3] of 95 to 100% and a pest or weed control at 70 g/ha [1, 4] of 95 to 100%. For the same molecule, the pest or weed control at 140 g/ha [1, 4] was 95 to 100%, the pest or weed control at 70 g/ha [1, 5] was 75 to 84% and the pest or weed control at 140 g/ha [1, 5] was 75 to 84%. For the same molecule, the pest or weed control at 70 g/ha [1, 6] was 95 to 100%, the pest or weed control at 140 g/ha [1, 6] was 95 to 100% and the pest or weed control at 70 g/ha [1, 7] was 95 to 100%. The pest or weed control at 140 g/ha [1, 7] was 95 to 100%, the pest or weed control at 70 g/ha [1, 8] was 95 to 100% and the pest or weed control at 140 g/ha [1, 8] was 95 to 100%. It also gave a pest or weed control at 70 g/ha [1, 9] of 30 to 44%, a pest or weed control at 140 g/ha [1, 9] of 45 to 59% and a pest or weed control at 70 g/ha [2, 10] of 95 to 100%. It also gave a pest or weed control at 140 g/ha [2, 10] of 95 to 100%, a pest or weed control at 70 g/ha [2, 11] of 75 to 84% and a pest or weed control at 140 g/ha [2, 11] of 75 to 84%. It also gave a pest or weed control at 70 g/ha [2, 12] of 95 to 100%, a pest or weed control at 140 g/ha [2, 12] of 95 to 100% and a pest or weed control at 70 g/ha [2, 13] of 30 to 44%. It also gave a pest or weed control at 140 g/ha [2, 13] of 30 to 44%, a pest or weed control at 70 g/ha [2, 14] of 85 to 94% and a pest or weed control at 140 g/ha [2, 14] of 85 to 94%. The pest or weed control at 70 g/ha [2, 15] was 85 to 94%, the pest or weed control at 140 g/ha [2, 15] was 85 to 94% and the pest or weed control at 70 g/ha [2, 16] was 45 to 59%. The pest or weed control at 140 g/ha [2, 16] was 45 to 59%, the pest or weed control at 70 g/ha [2, 17] was 95 to 100% and the pest or weed control at 140 g/ha [2, 17] was 95 to 100%. It also gave a melting point of 124 to 126 °C.
With `COC(=O)c1nc(-c2ccc(Cl)c(Cl)c2Cl)c(F)c(N)c1Cl` [Compound 12] the pest or weed control at 70 g/ha [1, 3] was 85 to 94%, the pest or weed control at 140 g/ha [1, 3] was 85 to 94% and the pest or weed control at 70 g/ha [1, 4] was 95 to 100%. For the same molecule, the pest or weed control at 140 g/ha [1, 4] was 95 to 100%, the pest or weed control at 70 g/ha [1, 5] was 75 to 84% and the pest or weed control at 140 g/ha [1, 5] was 75 to 84%. It also gave a pest or weed control at 70 g/ha [1, 6] of 85 to 94%, a pest or weed control at 140 g/ha [1, 6] of 85 to 94% and a pest or weed control at 70 g/ha [1, 7] of 75 to 84%. The pest or weed control at 140 g/ha [1, 7] was 75 to 84%, the pest or weed control at 70 g/ha [1, 8] was 85 to 94% and the pest or weed control at 140 g/ha [1, 8] was 85 to 94%. For the same molecule, the pest or weed control at 70 g/ha [1, 9] was 0 to 29%, the pest or weed control at 140 g/ha [1, 9] was 0 to 29% and the pest or weed control at 70 g/ha [2, 10] was 0 to 29%. The pest or weed control at 140 g/ha [2, 10] was 45 to 59%, the pest or weed control at 70 g/ha [2, 11] was 30 to 44% and the pest or weed control at 140 g/ha [2, 11] was 45 to 59%. It also gave a pest or weed control at 70 g/ha [2, 12] of 0 to 29%, a pest or weed control at 140 g/ha [2, 12] of 0 to 29% and a pest or weed control at 70 g/ha [2, 13] of 0 to 29%. For the same molecule, the pest or weed control at 140 g/ha [2, 13] was 0 to 29%, the pest or weed control at 70 g/ha [2, 14] was 45 to 59% and the pest or weed control at 140 g/ha [2, 14] was 45 to 59%. It also gave a pest or weed control at 70 g/ha [2, 15] of 0 to 29%, a pest or weed control at 140 g/ha [2, 15] of 30 to 44% and a pest or weed control at 70 g/ha [2, 16] of 0 to 29%. It also gave a pest or weed control at 140 g/ha [2, 16] of 0 to 29%, a pest or weed control at 70 g/ha [2, 17] of 75 to 84% and a melting point of 195 to 196 °C.
Work on `COC(=O)c1nc(-c2ccc(C(F)(F)F)c(F)c2C)cc(N)c1Cl` [Compound 9, methyl 4-amino-3-chloro-6-(3-fluoro-2-methyl-4-(trifluoromethyl)phenyl)picolinate] yielded a pest or weed control at 70 g/ha [1, 3] of 85 to 94%, a pest or weed control at 140 g/ha [1, 3] of 85 to 94% and a pest or weed control at 70 g/ha [1, 4] of 0 to 29%. The pest or weed control at 140 g/ha [1, 4] was 0 to 29%, the pest or weed control at 70 g/ha [1, 5] was 0 to 29% and the pest or weed control at 140 g/ha [1, 5] was 0 to 29%. It also gave a pest or weed control at 70 g/ha [1, 6] of 85 to 94%, a pest or weed control at 140 g/ha [1, 6] of 95 to 100% and a pest or weed control at 70 g/ha [1, 7] of 95 to 100%. The pest or weed control at 70 g/ha [1, 8] was 0 to 29%, the pest or weed control at 140 g/ha [1, 8] was 85 to 94% and the pest or weed control at 70 g/ha [1, 9] was 0 to 29%. The pest or weed control at 140 g/ha [1, 9] was 0 to 29%, the pest or weed control at 70 g/ha [2, 10] was 95 to 100% and the pest or weed control at 140 g/ha [2, 10] was 95 to 100%. For the same molecule, the pest or weed control at 70 g/ha [2, 11] was 0 to 29%, the pest or weed control at 140 g/ha [2, 11] was 0 to 29% and the pest or weed control at 70 g/ha [2, 12] was 0 to 29%. The pest or weed control at 140 g/ha [2, 12] was 0 to 29%, the pest or weed control at 70 g/ha [2, 13] was 0 to 29% and the pest or weed control at 140 g/ha [2, 13] was 0 to 29%. For the same molecule, the pest or weed control at 70 g/ha [2, 15] was 0 to 29%, the pest or weed control at 140 g/ha [2, 15] was 30 to 44% and the pest or weed control at 70 g/ha [2, 16] was 0 to 29%. It also gave a pest or weed control at 140 g/ha [2, 16] of 0 to 29%, a pest or weed control at 70 g/ha [2, 17] of 0 to 29% and a pest or weed control at 140 g/ha [2, 17] of 30 to 44%.
